Experimental findings from US20090318468A1, “PYRAZOLE COMPOUNDS 436” (AstraZeneca AB, priority 2008, published 2009) are described below.

The target in the assay is T1, human cytochrome P450 (CYP) 2C19 (Homo sapiens, UniProt P33261).
T1 construct: made in house; host or cells: yeast (microsomal fraction)
Nature of the assay: Cytochrome P450 Inhibition Assay, CYP 2C19. Format: in vitro ADME. Conditions: expected IC50 range of known inhibitor (positive control); read-out: IC50 range (μM), CYP 2C19. The method, then:
Cytochrome P450 Inhibition Assay
The inhibitory potential (IC50) of test compounds against 5 human cytochrome P450 (CYP) isoforms (1A2, 2C9, 2C19, 3A4 and 2D6) was assessed using an automated fluorescent end point in vitro assay modified from Crespi (Crespi and Stresser, J Pharmacol Toxicol Methods 2000, 44: 325-331). Microsomal subcellular fractions prepared from Yeast cell lines expressing each human CYP isoform were used as an enzyme source in this assay. The activity of the 5 major human CYPs was determined from the biotransformation of a number of coumarin substrates to fluorescent metabolites, in the presence of NADPH. […] Stock solutions of each CYP, with its respective substrate, were prepared in phosphate buffer pH 7.4 (see Table 1) and 178 μl was added to the well of a black solid, flat bottom, 300 μl 96 well microtitre plate (Corning Costar). […] After pre-incubating at 37° C. for 5 min the reactions were started with addition of NADPH (20 μl, concentration shown in Table 1). The final solvent content in each incubation was <=2% (1% from the test compound and a maximum of 1% from the substrate). The appropriate solvent controls and substrate blanks were included in each experiment to assess control activity and identify any inherent fluorescence due to the test compounds. In addition, known inhibitors of each CYP were included as positive controls (see Table 3 for inhibitor concentrations and expected IC50 ranges). The reactions were stopped at defined timepoints (see Table 1) by quenching with 100 μl of solvent (acetonitrile:0.5M Tris buffer 80:20 v/v). The plates were read on a fluorimeter (Spectrafluor Plus) at the appropriate excitation and emission wavelengths (listed in Table 2) and the percent activity, corrected for control, was plotted against the test compound concentration.

T1 sequence (P33261 whole entry): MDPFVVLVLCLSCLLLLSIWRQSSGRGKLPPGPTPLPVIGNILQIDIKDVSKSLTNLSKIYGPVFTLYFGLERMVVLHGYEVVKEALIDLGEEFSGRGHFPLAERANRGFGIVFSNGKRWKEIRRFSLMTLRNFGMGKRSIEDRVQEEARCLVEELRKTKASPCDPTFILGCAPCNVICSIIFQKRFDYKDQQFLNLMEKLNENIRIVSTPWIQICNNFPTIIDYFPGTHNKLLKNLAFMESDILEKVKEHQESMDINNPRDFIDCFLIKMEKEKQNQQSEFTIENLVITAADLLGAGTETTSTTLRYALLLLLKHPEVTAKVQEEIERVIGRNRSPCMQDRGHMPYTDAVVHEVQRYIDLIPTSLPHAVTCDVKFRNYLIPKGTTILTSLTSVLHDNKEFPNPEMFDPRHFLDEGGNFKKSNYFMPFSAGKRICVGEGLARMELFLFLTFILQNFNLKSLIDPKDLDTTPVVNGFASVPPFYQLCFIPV

The term IC50 denotes the concentration needed to halve the response being measured. Consider `COc1ccc2[nH]c([S+]([O-])Cc3ncc(C)c(OC)c3C)nc2c1` (stereo not shown) [Omeprazole, reference compound], for which the IC50 fell in the range of 1.5 to 4.6 µM.
